# In patent US20060194837A1, “Tetrahydroisoquinoline compounds” (priority 2004, published 2006):
# pKi: −log10 of the molar value.
# Columns and labels:
# Rat SERT = target: T1, Rat SERT (Rattus norvegicus, UniProt P31652); assay: Rat brain SERT binding ([3H]-citalopram displacement); settings: rat brain membranes without cerebellum, 0.6 nM [3H]-citalopram, 60 min at 25° C.; read-out: Rat SERT Ki
# T1 construct: A rat brain without cerebellum (Zivic Laboratories, Inc.—Pittsburgh, Pa.) was homogenized; tissue Zivic Laboratories, Inc; host or cells: rat brain without cerebellum, membranes
# T1 sequence (P31652 whole entry): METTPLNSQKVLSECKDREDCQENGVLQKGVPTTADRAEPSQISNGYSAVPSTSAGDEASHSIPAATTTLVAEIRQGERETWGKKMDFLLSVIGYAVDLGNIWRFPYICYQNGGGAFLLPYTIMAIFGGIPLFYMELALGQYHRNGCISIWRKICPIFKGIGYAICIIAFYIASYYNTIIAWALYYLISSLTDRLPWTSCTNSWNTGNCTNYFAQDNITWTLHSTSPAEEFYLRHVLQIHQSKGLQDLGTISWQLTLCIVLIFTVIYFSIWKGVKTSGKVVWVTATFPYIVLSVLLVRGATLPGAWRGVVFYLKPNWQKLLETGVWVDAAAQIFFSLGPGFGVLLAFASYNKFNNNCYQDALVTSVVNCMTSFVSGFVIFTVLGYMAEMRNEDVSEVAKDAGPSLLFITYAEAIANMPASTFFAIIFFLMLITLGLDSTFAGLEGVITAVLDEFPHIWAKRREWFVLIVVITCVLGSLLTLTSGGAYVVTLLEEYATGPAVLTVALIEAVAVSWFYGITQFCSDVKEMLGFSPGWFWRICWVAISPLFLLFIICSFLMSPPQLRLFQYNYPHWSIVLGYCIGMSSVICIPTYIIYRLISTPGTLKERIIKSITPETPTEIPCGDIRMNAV
# Experimental: The supernatant was removed and re-centrifuged at 15,000 rpm for 30 min. […] Membranes were incubated with 0.6 nM [^3H]-Citalopram plus/minus test compounds for 60 min at 25° C. and harvested by rapid filtration over GF/C glass fiber filters (pretreated with 0.3% polyethylenimine) followed by four washes with ice-cold buffer.
# human H3 receptor = target: T2, human H3 receptor (Homo sapiens, UniProt Q9Y5N1); assay: H3 receptor binding (N-[3H]-α-methylhistamine displacement); settings: membranes of SK-N-MC cells expressing cloned human H3 receptor, 0.8 nM N-[3H]-α-methylhistamine, 60 min at 25° C.
# T2 construct: expressed in transfected cells
# T2 sequence (Q9Y5N1 whole entry): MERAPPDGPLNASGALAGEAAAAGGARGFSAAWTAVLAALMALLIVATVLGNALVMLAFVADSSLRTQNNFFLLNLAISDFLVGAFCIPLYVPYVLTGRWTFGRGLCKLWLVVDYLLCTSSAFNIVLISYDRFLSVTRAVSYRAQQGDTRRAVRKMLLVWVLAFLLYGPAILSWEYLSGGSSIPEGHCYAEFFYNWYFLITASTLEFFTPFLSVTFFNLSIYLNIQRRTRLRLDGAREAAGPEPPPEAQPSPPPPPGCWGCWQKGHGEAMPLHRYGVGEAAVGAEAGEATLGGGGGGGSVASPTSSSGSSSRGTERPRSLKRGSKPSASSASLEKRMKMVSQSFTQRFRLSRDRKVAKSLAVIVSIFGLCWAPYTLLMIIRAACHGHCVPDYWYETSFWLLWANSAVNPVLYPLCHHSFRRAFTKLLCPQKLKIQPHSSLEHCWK
# Experimental: Briefly, cell pellets from SK-N-MC cells expressing the human H3 receptor were homogenized in 50 mM Tris-HCl/5 mM EDTA and re-centrifuged at 30,000 g for 30 min. Pellets were re-homogenized in 50 mM Tris/6 mM EDTA (pH 7.4). Membranes were incubated with 0.8 nM N-[^3H]-α-methylhistamine plus/minus test compounds for 60 min at 25° C. and harvested by rapid filtration over GF/C glass fiber filters (pretreated with 0.3% polyethylenimine) followed by four washes with ice-cold buffer. Nonspecific binding was defined in the presence of 10 μM histamine.
Structure (SMILES),pKi (Rat SERT),pKi (human H3 receptor)
"CN1Cc2cc(OCCCN3CCC(F)CC3)ccc2C(c2ccc(N(C)C)nc2)C1 (stereo not shown) [Example 188, (5-{7-[3-(4-Fluoro-piperidin-1-yl)-propoxy]-2-methyl-1,2,3,4-tetrahydro-isoquinolin-4-yl}-pyridin-2-yl)-dimethyl-amine]",7.43,7.66
"COc1ccc(C2CN(C)Cc3cc(OC4CCNCC4)ccc32)cc1F (stereo not shown) [Example 151, 4-(3-Fluoro-4-methoxy-phenyl)-2-methyl-7-(piperidin-4-yloxy)-1,2,3,4-tetrahydro-isoquinoline]",8.52,6.92
"COc1ccc(C2CN(C)Cc3cc(OCCCN4CCOC[C@@H]4C)ccc32)cc1F (stereo partly drawn) [Example 221, 4-(3-Fluoro-4-methoxy-phenyl)-2-methyl-7-[3-(3S-methyl-morpholin-4-yl)-propoxy]-1,2,3,4-tetrahydro-isoquinoline]",7.96,8.05
"COc1cccc(C2CN(C)Cc3cc(OC4CCN(C5CCCC5)CC4)ccc32)c1 (stereo not shown) [Example 101, 7-(1-Cyclopentyl-piperidin-4-yloxy)-4-(3-methoxy-phenyl)-2-methyl-1,2,3,4-tetrahydro-isoquinoline]",7.74,8.70
"CN1Cc2cc(OCCCN3CCC(F)CC3)ccc2C(c2ccccc2Cl)C1 (stereo not shown) [Example 132, 4-(2-Chloro-phenyl)-7-[3-(4-fluoro-piperidin-1-yl)-propoxy]-2-methyl-1,2,3,4-tetrahydro-isoquinoline]",7.72,8.40
"COc1ccc(C2CN(C)Cc3cc(OCCCN4Cc5ccccc5C4)ccc32)cc1 (stereo not shown) [Example 16, 7-[3-(1,3-Dihydro-isoindol-2-yl)-propoxy]-4-(4-methoxy-phenyl)-2-methyl-1,2,3,4-tetrahydro-isoquinoline]",8.22,7.60
"C=CCNCCCOc1ccc2c(c1)CN(C)CC2c1ccc(OC)cc1 (stereo not shown) [Example 227, Allyl-{3-[4-(4-methoxy-phenyl)-2-methyl-1,2,3,4-tetrahydro-isoquinolin-7-yloxy]-propyl}-amine]",9.00,7.28
"COc1ccc(C2CN(C)Cc3cc(OCCCN(C)c4nc5ccccc5s4)ccc32)cc1 (stereo not shown) [Example 19, Benzothiazol-2-yl-{3-[4-(4-methoxy-phenyl)-2-methyl-1,2,3,4-tetrahydro-isoquinolin-7-yloxy]-propyl}-methyl-amine]",8.10,5.70
"CN1Cc2cc(OCCCN3CCC(F)CC3)ccc2C(c2cc(Cl)cc(Cl)c2)C1 (stereo not shown) [Example 56, 4-(3,5-Dichloro-phenyl)-7-[3-(4-fluoro-piperidin-1-yl)-propoxy]-2-methyl-1,2,3,4-tetrahydro-isoquinoline]",7.38,7.70
"CN1Cc2cc(OCCCN3CCC(F)CC3)ccc2C(c2ccc(OC(F)(F)F)cc2)C1 (stereo not shown) [Example 49, 7-[3-(4-Fluoro-piperidin-1-yl)-propoxy]-2-methyl-4-(4-trifluoromethoxy-phenyl)-1,2,3,4-tetrahydro-isoquinoline]",7.85,7.74
"COc1ccc(C2CN(C)Cc3cc(OCCCN4CCC(F)CC4)ccc32)c(F)c1 (single isomer, unassigned) [Example 140, 4-(2-Fluoro-4-methoxy-phenyl)-7-[3-(4-fluoro-piperidin-1-yl)-propoxy]-2-methyl-1,2,3,4-tetrahydro-isoquinoline]",7.55,–
"COc1ccc(C2CN(Cc3ccccc3)Cc3cc(OCCCN4CCC(F)CC4)ccc32)cc1 (stereo not shown) [Example 127, 2-Benzyl-7-[3-(4-fluoro-piperidin-1-yl)-propoxy]-4-(4-methoxy-phenyl)-1,2,3,4-tetrahydro-isoquinoline]",5.30,7.41
"COc1ccc(C2CN(C)Cc3cc(OCCCN4CCC[C@H]4C(F)(F)F)ccc32)cc1 (stereo partly drawn) [Example 28, 4-(4-Methoxy-phenyl)-2-methyl-7-[3-((2S)-trifluoromethyl-pyrrolidin-1-yl)-propoxy]-1,2,3,4-tetrahydro-isoquinoline]",7.92,6.85
"COc1ccc(C2CN(C)Cc3cc(OCCCN4CCN(c5ccccc5O)CC4)ccc32)cc1 (stereo not shown) [Example 203, 2-(4-{3-[4-(4-Methoxy-phenyl)-2-methyl-1,2,3,4-tetrahydro-isoquinolin-7-yloxy]-propyl}-piperazin-1-yl)-phenol]",8.10,6.30
"COc1cccc(C2CN(C)Cc3cc(OC4CCN(C(C)C)CC4)ccc32)c1 (stereo not shown) [Example 98, 7-(1-Isopropyl-piperidin-4-yloxy)-4-(3-methoxy-phenyl)-2-methyl-1,2,3,4-tetrahydro-isoquinoline]",7.96,8.70
"COc1ccc(C2CN(C)Cc3cc(OCCCNCCCO)ccc32)cc1 (stereo not shown) [Example 226, 3-{3-[4-(4-Methoxy-phenyl)-2-methyl-1,2,3,4-tetrahydro-isoquinolin-7-yloxy]-propylamino}-propan-1-ol]",9.00,6.97
"COc1ccc(C2CN(C)Cc3cc(OCCCN4CCC(F)CC4)ccc32)c(F)c1 (single isomer, unassigned) [Example 141, 4-(2-Fluoro-4-methoxy-phenyl)-7-[3-(4-fluoro-piperidin-1-yl)-propoxy]-2-methyl-1,2,3,4-tetrahydro-isoquinoline]",8.52,–
"COc1ccc(C2CN(C)Cc3cc(OCC4CCN(C(C)C)CC4)ccc32)c(F)c1 (stereo not shown) [Example 90, 4-(2-Fluoro-4-methoxy-phenyl)-7-(1-isopropyl-piperidin-4-ylmethoxy)-2-methyl-1,2,3,4-tetrahydro-isoquinoline]",8.05,–
"COc1ccc(C2CN(C)Cc3cc(OCCCN4CCC(F)CC4)ccc32)c(F)c1 (racemic) [Example 139, 4-(2-Fluoro-4-methoxy-phenyl)-7-[3-(4-fluoro-piperidin-1-yl)-propoxy]-2-methyl-1,2,3,4-tetrahydro-isoquinoline]",8.22,–

# Second part, the molecule after the results:
pKi (Rat SERT),pKi (human H3 receptor),Structure (SMILES)
9.00,7.15,"COc1ccc(C2CN(C)Cc3cc(OCC4CCNCC4)ccc32)cc1F (stereo not shown) [Example 81, 4-(3-Fluoro-4-methoxy-phenyl)-2-methyl-7-(piperidin-4-ylmethoxy)-1,2,3,4-tetrahydro-isoquinoline]"
8.30,7.23,"COc1ccc(C2CN(C)Cc3cc(OCCCNC4CCOCC4)ccc32)cc1 (stereo not shown) [Example 223, {3-[4-(4-Methoxy-phenyl)-2-methyl-1,2,3,4-tetrahydro-isoquinolin-7-yloxy]-propyl}-(tetrahydro-pyran-4-yl)-amine]"
8.30,6.74,"COc1ccc(C2CN(C)Cc3cc(OCC4CCNCC4)ccc32)cc1Cl (stereo not shown) [Example 79, 4-(3-Chloro-4-methoxy-phenyl)-2-methyl-7-(piperidin-4-ylmethoxy)-1,2,3,4-tetrahydro-isoquinoline]"
7.74,8.22,"CSc1ccc(C2CN(C)Cc3cc(OCCCN4CCCCC4)c(C)cc32)cc1 (stereo not shown) [Example 270, 2,6-Dimethyl-4-(4-methylsulfanyl-phenyl)-7-(3-piperidin-1-yl-propoxy)-1,2,3,4-tetrahydro-isoquinoline]"
8.22,8.30,"CCN1CCC(COc2ccc3c(c2)CN(C)CC3c2ccc(SC)cc2)CC1 (stereo not shown) [Example 105, 7-(1-Ethyl-piperidin-4-ylmethoxy)-2-methyl-4-(4-methylsulfanyl-phenyl)-1,2,3,4-tetrahydro-isoquinoline]"
7.92,7.17,"COc1ccc(C2CN(C)Cc3cc(OCC4CN(C)CCO4)ccc32)cc1 (mixture of isomers) [Example 251, 4-(4-Methoxy-phenyl)-2-methyl-7-(4-methyl-morpholin-2-ylmethoxy)-1,2,3,4-tetrahydro-isoquinoline]"
8.22,6.91,COc1ccc(C2CN(C)Cc3cc(OC4CCN(CC#N)CC4)ccc32)cc1 (stereo not shown) [Example 242]
8.52,7.74,"COc1ccc(C2CN(C)Cc3cc(OCC(F)CN4CCC(F)CC4)ccc32)cc1 (stereo not shown) [Example 43, 7-[2-Fluoro-3-(4-fluoro-piperidin-1-yl)-propoxy]-4-(4-methoxy-phenyl)-2-methyl-1,2,3,4-tetrahydro-isoquinoline]"
8.40,6.62,"CSc1ccc(C2CN(C)Cc3cc(OC4CCNCC4)ccc32)cc1 (stereo not shown) [Example 149, 2-Methyl-4-(4-methylsulfanyl-phenyl)-7-(piperidin-4-yloxy)-1,2,3,4-tetrahydro-isoquinoline]"
7.41,7.48,"C[C@H]1COCCN1CCCOc1ccc2c(c1)CN(C)CC2c1ccc(SC(F)(F)F)cc1 (stereo partly drawn) [Example 219, 2-Methyl-7-[3-(3S-methyl-morpholin-4-yl)-propoxy]-4-(4-trifluoromethylsulfanyl-phenyl)-1,2,3,4-tetrahydro-isoquinoline]"
7.80,8.70,"COc1ccc(C2CN(C)Cc3cc(OC[C@@H]4CN(C(C)C)CCO4)ccc32)cc1 (mixture of isomers) [Example 255, 7-(4-Isopropyl-morpholin-2S-ylmethoxy)-4-(4-methoxy-phenyl)-2-methyl-1,2,3,4-tetrahydro-isoquinoline]"
8.22,5.49,"CSc1ccc(C2CN(C)Cc3cc(OCC4CNCCO4)ccc32)cc1 (mixture of isomers) [Example 264, 2-Methyl-4-(4-methylsulfanyl-phenyl)-7-(morpholin-2-ylmethoxy)-1,2,3,4-tetrahydro-isoquinoline]"
